Test: solubility of MGDN in water (temperature-dependent)
Type: physicochemical
Protocol: MGDN has highly temperature-dependent solubility in water. For instance, only about 0.5% by weight of MGDN dissolves at 10° C. in water or an aqueous ammonium sulfate solution. At approx. 60° C., the solubility is still about 5% by weight. Above approx. 60° C., an emulsion of MGDN and its aqueous solution with more than 5% by weight of dissolved MGDN is present. No phase diagram of the water-MGDN system is known.
The MGDN concentration of the aqueous crude product mixture is generally from 3 to 50% by weight, preferably from 15 to 40% by weight, more preferably from 20 to 35% by weight. A content of dissolved MGDN of 1% by weight corresponds to a crystallization temperature of approx. 20° C., a content of dissolved MCDN of 5% by weight to a crystallization temperature of approx. 55° C. At 10° C., the water solubility of MGDN is still about 0.5% by weight.

CC(C#N)N(CC#N)CC#N (centres unmarked) [MGDN, methylglycinenitrile-N,N-diacetonitrile]
water solubility (at 10° C.): about 0.5 % by weight
solubility (at 10° C. in water or an aqueous ammonium sulfate solution): about 0.5 % by weight
solubility (at approx. 60° C., in water): about 5 % by weight
content of dissolved MGDN (corresponds to a crystallization temperature of approx. 20° C.): 1 % by weight
content of dissolved MGDN (corresponds to a crystallization temperature of approx. 55° C.): 5 % by weight
